# Reference: patent US11420973B2, “Amide substituted indole compounds useful as TLR inhibitors” (BRISTOL-MYERS SQUIBB COMPANY, priority 2017, dated 2022)
# How the values were obtained:
# [1] = molecular target: human TLR7 (Homo sapiens (Human), UniProt Q9NYK1); assay: TLR7 inhibition reporter assay (HEK-Blue SEAP reporter, gardiquimod stimulation); type: cell-based; settings: HEK-Blue cells overexpressing human TLR7, gardiquimod 7.5 μM
# Description: (§1) HEK-Blue™-cells (Invivogen) overexpressing human TLR7, TLR8 or TLR9 receptors were used for screening inhibitors of these receptors using an inducible SEAP (secreted embryonic alkaline phosphatase) reporter gene under the control of the IFN-β minimal promoter fused to five NF-κB and AP-1-binding sites. Briefly, cells are seeded into Greiner 384 well plates (15000 cells per well for TLR7, 20,000 for TLR8 and 25,000 for TLR9) and then treated with test compounds in DMSO to yield a final dose response concentration range of 0.05 nM-50 μM. After a 30 minute compound pre-treatment at room temperature, the cells are then stimulated with a TLR7 ligand (gardiquimod at a final concentration of 7.5 μM), TLR8 ligand (R848 at a final concentration of 15.9 μM) or TLR9 ligand (ODN2006 at a final concentration of 5 nM) to activate NF-κB and AP-1 which induce the production of SEAP. After a 22 hour incubation at 37° C., 5% CO2, SEAP levels are determined with the addition of HEK-Blue™ Detection reagent (Invivogen), a cell culture medium that allows for detection of SEAP, according to manufacturer's specifications.
# [2] = molecular target: human TLR9 (Homo sapiens (Human), UniProt Q9NR96); assay: TLR9 inhibition reporter assay (HEK-Blue SEAP reporter, ODN2006 stimulation); settings: read-out: TLR9 IC50; HEK-Blue cells overexpressing human TLR9, ODN2006 5 nM, SEAP reporter;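 further: SEAP reporter under IFN-β minimal promoter with five NF-κB and AP-1 sites, 22 h incubation, compounds 0.05 nM–50 µM, inhibition relative to agonist plus DMSO versus known inhibitor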
# [3] = molecular target: human TLR8 (Homo sapiens (Human), UniProt Q9NR97); assay: TLR8 inhibition reporter assay (HEK-Blue SEAP reporter, R848 stimulation); settings: read-out: TLR8 IC50; HEK-Blue cells overexpressing human TLR8, R848 15.9 μM, SEAP reporter;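 further: SEAP driven by IFN-β minimal promoter with NF-κB and AP-1 sites, 22 h incubation, compounds 0.05 nM–50 µM, inhibition scaled between agonist plus DMSO and reference inhibitor wells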
# Chain of human TLR8 (Q9NR97 27-1041): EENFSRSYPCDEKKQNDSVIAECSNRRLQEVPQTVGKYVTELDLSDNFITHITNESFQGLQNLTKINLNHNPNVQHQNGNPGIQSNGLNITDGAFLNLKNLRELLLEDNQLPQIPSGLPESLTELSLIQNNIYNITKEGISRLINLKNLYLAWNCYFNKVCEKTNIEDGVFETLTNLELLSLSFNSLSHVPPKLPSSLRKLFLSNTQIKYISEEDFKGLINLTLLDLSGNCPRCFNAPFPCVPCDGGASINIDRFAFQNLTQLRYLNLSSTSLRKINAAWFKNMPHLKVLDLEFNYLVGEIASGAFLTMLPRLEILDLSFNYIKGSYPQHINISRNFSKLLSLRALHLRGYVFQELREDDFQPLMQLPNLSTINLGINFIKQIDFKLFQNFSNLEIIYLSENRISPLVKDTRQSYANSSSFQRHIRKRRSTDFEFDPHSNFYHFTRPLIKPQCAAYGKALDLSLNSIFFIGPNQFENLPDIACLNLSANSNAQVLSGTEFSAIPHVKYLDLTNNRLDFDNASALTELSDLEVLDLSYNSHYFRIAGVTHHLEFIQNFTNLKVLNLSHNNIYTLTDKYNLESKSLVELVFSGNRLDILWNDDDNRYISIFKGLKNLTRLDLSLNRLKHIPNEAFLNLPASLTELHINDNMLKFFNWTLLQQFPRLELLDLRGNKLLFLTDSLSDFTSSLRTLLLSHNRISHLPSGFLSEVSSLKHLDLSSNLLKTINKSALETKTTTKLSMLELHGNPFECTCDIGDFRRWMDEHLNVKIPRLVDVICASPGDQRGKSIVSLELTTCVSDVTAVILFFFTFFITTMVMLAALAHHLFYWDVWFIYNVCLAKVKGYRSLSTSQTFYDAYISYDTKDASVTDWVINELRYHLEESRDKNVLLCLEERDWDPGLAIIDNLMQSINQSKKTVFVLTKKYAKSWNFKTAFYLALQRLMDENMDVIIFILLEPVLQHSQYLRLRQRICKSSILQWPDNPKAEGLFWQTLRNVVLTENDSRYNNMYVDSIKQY
# Description: as §1
# Chain of human TLR9 (Q9NR96 26-1032): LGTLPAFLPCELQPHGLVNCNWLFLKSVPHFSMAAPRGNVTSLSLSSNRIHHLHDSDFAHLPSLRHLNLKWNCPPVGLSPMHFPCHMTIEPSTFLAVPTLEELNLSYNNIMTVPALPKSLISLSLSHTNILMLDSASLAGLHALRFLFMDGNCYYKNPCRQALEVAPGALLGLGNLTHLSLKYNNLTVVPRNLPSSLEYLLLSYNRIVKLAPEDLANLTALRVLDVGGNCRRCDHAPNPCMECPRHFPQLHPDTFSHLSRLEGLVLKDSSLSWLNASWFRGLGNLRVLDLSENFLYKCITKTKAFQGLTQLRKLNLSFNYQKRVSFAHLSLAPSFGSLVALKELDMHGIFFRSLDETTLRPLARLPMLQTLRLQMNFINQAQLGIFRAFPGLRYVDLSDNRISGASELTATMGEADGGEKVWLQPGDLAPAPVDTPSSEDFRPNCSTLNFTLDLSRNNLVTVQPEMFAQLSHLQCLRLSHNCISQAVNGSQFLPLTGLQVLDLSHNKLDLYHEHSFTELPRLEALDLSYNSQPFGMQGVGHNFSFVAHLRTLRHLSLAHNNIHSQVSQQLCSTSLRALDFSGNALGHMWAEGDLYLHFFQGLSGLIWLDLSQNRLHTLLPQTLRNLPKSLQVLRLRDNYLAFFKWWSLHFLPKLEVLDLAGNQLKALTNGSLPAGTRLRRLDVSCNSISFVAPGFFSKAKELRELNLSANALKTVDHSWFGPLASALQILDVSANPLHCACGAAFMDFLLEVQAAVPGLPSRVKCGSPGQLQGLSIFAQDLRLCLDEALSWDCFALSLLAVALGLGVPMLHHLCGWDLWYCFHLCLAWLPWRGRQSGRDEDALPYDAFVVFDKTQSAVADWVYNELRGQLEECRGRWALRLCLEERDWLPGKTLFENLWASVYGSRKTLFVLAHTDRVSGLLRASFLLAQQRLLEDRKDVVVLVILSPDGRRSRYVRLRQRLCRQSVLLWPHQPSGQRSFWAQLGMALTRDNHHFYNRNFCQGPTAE
# Chain of human TLR7 (Q9NYK1 27-1049): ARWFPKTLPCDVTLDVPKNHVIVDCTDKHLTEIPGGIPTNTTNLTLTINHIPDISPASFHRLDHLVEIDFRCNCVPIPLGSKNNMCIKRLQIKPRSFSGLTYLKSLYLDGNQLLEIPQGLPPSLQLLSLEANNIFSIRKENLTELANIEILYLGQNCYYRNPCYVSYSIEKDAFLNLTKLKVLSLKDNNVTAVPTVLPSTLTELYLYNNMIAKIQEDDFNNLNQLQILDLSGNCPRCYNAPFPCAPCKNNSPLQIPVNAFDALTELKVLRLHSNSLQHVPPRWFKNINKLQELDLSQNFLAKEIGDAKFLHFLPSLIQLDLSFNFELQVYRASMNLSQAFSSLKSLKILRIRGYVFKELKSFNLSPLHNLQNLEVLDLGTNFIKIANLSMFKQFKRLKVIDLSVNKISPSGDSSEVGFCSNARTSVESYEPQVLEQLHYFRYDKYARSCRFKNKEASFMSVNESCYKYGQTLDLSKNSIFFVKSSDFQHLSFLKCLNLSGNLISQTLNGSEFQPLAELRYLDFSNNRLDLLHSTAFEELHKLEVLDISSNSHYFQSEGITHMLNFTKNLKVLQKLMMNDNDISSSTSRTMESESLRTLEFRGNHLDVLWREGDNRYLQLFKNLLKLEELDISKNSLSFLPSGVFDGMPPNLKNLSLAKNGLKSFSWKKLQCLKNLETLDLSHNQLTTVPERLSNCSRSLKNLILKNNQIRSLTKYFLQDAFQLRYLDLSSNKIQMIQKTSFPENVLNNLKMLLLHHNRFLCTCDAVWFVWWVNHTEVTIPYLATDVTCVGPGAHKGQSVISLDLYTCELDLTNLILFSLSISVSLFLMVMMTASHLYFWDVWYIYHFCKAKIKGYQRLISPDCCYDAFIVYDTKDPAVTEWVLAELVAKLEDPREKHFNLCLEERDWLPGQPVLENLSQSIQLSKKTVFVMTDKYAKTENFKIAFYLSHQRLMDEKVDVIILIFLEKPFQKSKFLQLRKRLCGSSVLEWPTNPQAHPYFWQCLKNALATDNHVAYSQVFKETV
SMILES,IC50 [1] [nM],IC50 [2] [nM],IC50 [3] [nM]
"Cc1cc(-c2[nH]c3ccc(C(C)(C)C(=O)N4CC5CN(C)CC5C4)cc3c2C(C)C)ccn1 (stereo not drawn) [Example 149, 2-(3-isopropyl-2-(2-methylpyridin-4-yl)-1H-indol-5-yl)-2-methyl-1-(5-methylhexahydropyrrolo[3,4-c]pyrrol-2(1H)-yl)propan-1-one]",17,3050,277
"Cc1cc(-c2[nH]c3ccc(C(C)(C)C(=O)N4CCC5(CCN(C)C5)CC4)cc3c2C(C)C)ccn1 [Example 150, 2-(3-isopropyl-2-(2-methylpyridin-4-yl)-1H-indol-5-yl)-2-methyl-1-(2-methyl-2,8-diazaspiro[4.5]decan-8-yl)propan-1-one]",22,1490,141
"Cc1cc(-c2[nH]c3ccc(C(C)(C)C(=O)N4CCC(CN)C4)cc3c2C(C)C)ccn1 (stereo not drawn) [Example 151, 1-(3-(aminomethyl)pyrrolidin-1-yl)-2-(3-isopropyl-2-(2-methylpyridin-4-yl)-1H-indol-5-yl)-2-methylpropan-1-one]",72,7090,175
"Cc1cc(-c2[nH]c3ccc(C(C)(C)C(=O)N4CCCC5(CCCCC5N)C4)cc3c2C(C)C)ccn1 (stereo not drawn) [Example 152, 1-(7-amino-2-azaspiro[5.5]undecan-2-yl)-2-(3-isopropyl-2-(2-methylpyridin-4-yl)-1H-indol-5-yl)-2-methylpropan-1-one]",31,2640,46
"Cc1cc(-c2[nH]c3ccc(C(C)(C)C(=O)N4CCC(N)CC4)cc3c2C(C)C)ccn1 [Example 153, 1-(4-aminopiperidin-1-yl)-2-(3-isopropyl-2-(2-methylpyridin-4-yl)-1H-indol-5-yl)-2-methylpropan-1-one]",159,566,91
"Cc1cc(-c2[nH]c3ccc(C(C)(C)C(=O)N4CCC[C@H](N)C4)cc3c2C(C)C)ccn1 [Example 155, (S)-1-(3-aminopiperidin-1-yl)-2-(3-isopropyl-2-(2-methylpyridin-4-yl)-1H-indol-5-yl)-2-methylpropan-1-one]",113,2040,143
"Cc1cc(-c2[nH]c3ccc(C(C)(C)C(=O)N4CCCC(CN)C4)cc3c2C(C)C)ccn1 (stereo not drawn) [Example 156, 1-(3-(aminomethyl)piperidin-1-yl)-2-(3-isopropyl-2-(2-methylpyridin-4-yl)-1H-indol-5-yl)-2-methylpropan-1-one]",53,927,52
"Cc1cc(-c2[nH]c3ccc(C(C)(C)C(=O)N4CCCCC4CN)cc3c2C(C)C)ccn1 (stereo not drawn) [Example 157, 1-(2-(aminomethyl)piperidin-1-yl)-2-(3-isopropyl-2-(2-methylpyridin-4-yl)-1H-indol-5-yl)-2-methylpropan-1-one]",6.3,997,28
"Cc1cc(-c2[nH]c3ccc(C(C)(C)C(=O)N4CCC(CN)CC4)cc3c2C(C)C)ccn1 [Example 158, 1-(4-(aminomethyl)piperidin-1-yl)-2-(3-isopropyl-2-(2-methylpyridin-4-yl)-1H-indol-5-yl)-2-methylpropan-1-one]",79,3030,500
"Cc1cc(-c2[nH]c3ccc(C(C)(C)C(=O)NCC4CCCCN4)cc3c2C(C)C)ccn1 (stereo not drawn) [Example 159, 2-(3-isopropyl-2-(2-methylpyridin-4-yl)-1H-indol-5-yl)-2-methyl-N-(piperidin-2-ylmethyl)propanamide]",139,855,18
"Cc1cc(-c2[nH]c3ccc(C(C)(C)C(=O)NC[C@H]4CCNC4)cc3c2C(C)C)ccn1 [Example 160, (S)-2-(3-isopropyl-2-(2-methylpyridin-4-yl)-1H-indol-5-yl)-2-methyl-N-(pyrrolidin-3-ylmethyl)propanamide]",164,5090,1030
"Cc1cc(-c2[nH]c3ccc(C(C)(C)C(=O)N(C)C4CCCNC4)cc3c2C(C)C)ccn1 (stereo not drawn) [Example 161, 2-(3-isopropyl-2-(2-methylpyridin-4-yl)-1H-indol-5-yl)-N,2-dimethyl-N-(piperidin-3-yl)propanamide]",42,1740,31
"Cc1cc(-c2[nH]c3ccc(C(C)(C)C(=O)N(C)C4CN5CCC4CC5)cc3c2C(C)C)ccn1 (stereo not drawn) [Example 162, 2-(3-isopropyl-2-(2-methylpyridin-4-yl)-1H-indol-5-yl)-N,2-dimethyl-N-(quinuclidin-3-yl)propanamide]",24,3520,135
"Cc1cc(-c2[nH]c3ccc(C(C)(C)C(=O)NCC4CCCNC4)cc3c2C(C)C)ccn1 (stereo not drawn) [Example 163, 2-(3-isopropyl-2-(2-methylpyridin-4-yl)-1H-indol-5-yl)-2-methyl-N-(piperidin-3-ylmethyl)propanamide]",238,1880,676
"Cc1cc(-c2[nH]c3ccc(C(C)(C)C(=O)NCC4CCNCC4)cc3c2C(C)C)ccn1 [Example 164, 2-(3-isopropyl-2-(2-methylpyridin-4-yl)-1H-indol-5-yl)-2-methyl-N-(piperidin-4-ylmethyl)propanamide]",331,2530,617
"Cc1cc(-c2[nH]c3ccc(C(C)(C)C(=O)N(C)C4CCNCC4)cc3c2C(C)C)ccn1 [Example 165, 2-(3-isopropyl-2-(2-methylpyridin-4-yl)-1H-indol-5-yl)-N,2-dimethyl-N-(piperidin-4-yl)propanamide]",61,908,63
"Cc1cc(-c2[nH]c3ccc(C(C)(C)C(=O)NC4C[C@H]5CC[C@@H](C4)N5C)cc3c2C(C)C)ccn1 (stereo partly drawn) [Example 166, 2-(3-isopropyl-2-(2-methylpyridin-4-yl)-1H-indol-5-yl)-2-methyl-N-((1R,5S)-8-methyl-8-azabicyclo[3.2.1]octan-3-yl)propanamide]",22,8230,135
"Cc1cc(-c2[nH]c3ccc(C(C)(C)C(=O)NC4CCC(N)CC4)cc3c2C(C)C)ccn1 (stereo not drawn) [Example 167, N-(4-aminocyclohexyl)-2-(3-isopropyl-2-(2-methylpyridin-4-yl)-1H-indol-5-yl)-2-methylpropanamide]",63,2900,36
"Cc1cc(-c2[nH]c3ccc(C(C)(C)C(=O)NC4CCCC(N)C4)cc3c2C(C)C)ccn1 (stereo not drawn) [Example 168, N-(3-aminocyclohexyl)-2-(3-isopropyl-2-(2-methylpyridin-4-yl)-1H-indol-5-yl)-2-methylpropanamide]",96,2670,44
"Cc1cc(-c2[nH]c3ccc(C(C)(C)C(=O)N[C@@H]4CCCC[C@H]4N)cc3c2C(C)C)ccn1 [Example 169, N—((R,2R)-2-aminocyclohexyl)-2-(3-isopropyl-2-(2-methylpyridin-4-yl)-1H-indol-5-yl)-2-methylpropanamide]",16,899,7.1
"Cc1cc(-c2[nH]c3ccc(C(C)(C)C(=O)N[C@H]4CCCC[C@H]4N)cc3c2C(C)C)ccn1 [Example 170, N-((1S,2R)-2-aminocyclohexyl)-2-(3-isopropyl-2-(2-methylpyridin-4-yl)-1H-indol-5-yl)-2-methylpropanamide]",11,1660,51
"Cc1cc(-c2[nH]c3ccc(C(C)(C)C(=O)NCCC4CCCNC4)cc3c2C(C)C)ccn1 (stereo not drawn) [Example 171, 2-(3-isopropyl-2-(2-methylpyridin-4-yl)-1H-indol-5-yl)-2-methyl-N-(2-(piperidin-3-yl)ethyl)propanamide]",67,5220,602
"Cc1cc(-c2[nH]c3ccc(C(C)(C)C(=O)NC[C@H]4CC[C@H](N)CC4)cc3c2C(C)C)ccn1 [Example 172, N-(((1r,4r)-4-aminocyclohexyl)methyl)-2-(3-isopropyl-2-(2-methylpyridin-4-yl)-1H-indol-5-yl)-2-methylpropanamide]",58,1800,325
"Cc1cc(-c2[nH]c3ccc(C(C)(C)C(=O)NCC4(O)CCN(C)CC4)cc3c2C(C)C)ccn1 [Example 173, N-((4-hydroxy-1-methylpiperidin-4-yl)methyl)-2-(3-isopropyl-2-(2-methylpyridin-4-yl)-1H-indol-5-yl)-2-methylpropanamide]",57,691,150
"Cc1cc(-c2[nH]c3ccc(C(C)(C)C(=O)NCC4(O)CN5CCC4CC5)cc3c2C(C)C)ccn1 (stereo not drawn) [Example 174, N-((3-hydroxyquinuclidin-3-yl)methyl)-2-(3-isopropyl-2-(2-methylpyridin-4-yl)-1H-indol-5-yl)-2-methylpropanamide]",54,2060,550
"Cc1cc(-c2[nH]c3ccc(C(C)(C)C(=O)N4CCNCC4)cc3c2C(C)C)ccn1 [Example 175, 2-(3-isopropyl-2-(2-methylpyridin-4-yl)-1H-indol-5-yl)-2-methyl-1-(piperazin-1-yl)propan-1-one]",167,1010,36
"Cc1cc(-c2[nH]c3ccc(C(C)(C)C(=O)N4CC5CC4CN5)cc3c2C(C)C)ccn1 (stereo not drawn) [Example 176, 1-(2,5-diazabicyclo[2.2.1]heptan-2-yl)-2-(3-isopropyl-2-(2-methylpyridin-4-yl)-1H-indol-5-yl)-2-methylpropan-1-one]",260,8390,211
"Cc1cc(-c2[nH]c3ccc(C(C)(C)C(=O)N4CCC(OC5CCNCC5)CC4)cc3c2C(C)C)ccn1 [Example 177, 2-(3-isopropyl-2-(2-methylpyridin-4-yl)-1H-indol-5-yl)-2-methyl-1-(4-(piperidin-4-yloxy)piperidin-1-yl)propan-1-one]",128,1460,58
